Several values for one entry are separate records, joined by “and”; a condition that tells them apart may be missing. Identical values can stand only once.
Assays:
[1] = tested on: MKN-45; experiment: Viability assay (Cell Titer-Glo); type: cell-based; details: Homo sapiens
Protocol: (§1) Cytotoxicity effects of the ADC on the cancer cell lines were measured by cell viability assays. Cells were seeded in a volume of 90 μL in 96-well plates the day before treatment. Test compounds (ADCs or free payloads) were formulated at 10-fold the starting concentration in cell culture medium. Test compounds were serial diluted (1:4) and 10 μL of each dilution was added to the cells in triplicates. Plates were cultured at 37° C. in a CO2 incubator for six days. For cell viability measurement, Cell Titer-Glo® reagent (Promega™ Corp, Madison, WI) was added to each well, and plates processed according to the manufacturer's instructions. Luminescence signals were measured using a Varioskan plate reader (Thermo Fisher). Luminescence readings were converted to % viability relative to untreated cells. Data was fitted with non-linear regression analysis, using log (inhibitor) vs. response, variable slope, 4-parameter fit equation using GraphPad Prism. […] Geometric mean values of IC50s derived from multiple experiments were calculated.
(§2) Cytotoxicity effects of the ADC on the cancer cell lines were measured by cell viability assays. […] Luminescence signals were measured using a Varioskan plate reader (Thermo Fisher). Luminescence readings were converted to % viability relative to untreated cells. […] Geometric mean values of IC50s derived from multiple experiments were calculated.

[2] = tested on: SNU-16; experiment: Viability assay (Cell Titer-Glo); type: cell-based, human
Protocol: as §1, §2

[3] = tested on: SK-CO-1; experiment: Viability assay (Cell Titer-Glo); type: cell-based; details: Homo sapiens
Protocol: as §1, §2

[4] = tested on: LS174T; experiment: Viability assay (Cell Titer-Glo); type: cell-based; details: Homo sapiens
Protocol: as §1, §2

[5] = tested on: MDA-MB-468; experiment: Viability assay (Cell Titer-Glo); type: cell-based; details: Homo sapiens, Table 2
Protocol: Cytotoxicity effects of the ADC on the cancer cell lines were measured by cell viability assays. Cells were seeded in a volume of 90 μL in 96-well plates the day before treatment. Test compounds (ADCs or free payloads) were formulated at 10-fold the starting concentration in cell culture medium. Test compounds were serial diluted (1:4) and 10 μL of each dilution was added to the cells in triplicates. Plates were cultured at 37° C. in a CO2 incubator for six days. For cell viability measurement, Cell Titer-Glo® reagent (Promega™ Corp, Madison, WI) was added to each well, and plates processed according to the manufacturer's instructions. Luminescence signals were measured using a Varioskan plate reader (Thermo Fisher). Luminescence readings were converted to % viability relative to untreated cells. Data was fitted with non-linear regression analysis, using log (inhibitor) vs. response, variable slope, 4-parameter fit equation using GraphPad Prism. Data is shown as % relative cell viability vs. molar compound concentration, error bars indicating standard deviation (SD) of triplicates. Geometric mean values of IC50s derived from multiple experiments were calculated.

[6] = tested on: MDA-MB-231; experiment: Viability assay (Cell Titer-Glo); type: cell-based; details: Homo sapiens, MDA-MB-231, 144 h; Table 2; six days; geometric mean; N ≥ 3; CEACAM5 Negative
Protocol: as §1, §2

[7] = background; cited from earlier work
[8] = tested on: MKN45 cells; experiment: Internalization assay using Cell Discoverer (pHrodo labeled antibodies); type: cell-based, human
From the text: A relevant characteristic of an ADC is its internalization into a target-expressing cell and lysosomes, and thus internalization is a relevant property of antibodies to be used as part of ADCs. Antibody internalization rate into the late endosome and lysosome (low pH vesicles) can be monitored by directly labeling the antibodies with a pH-sensitive dye (pHrodo) which emits strong fluorescence at a pH lower than 6.0 upon excitation. This fluorescence can be imaged in the Cell-Discoverer7 (Zeiss) and internalization rate can be calculated.
To analyze the internalization rates of several antibodies, MKN45 cells were seeded in a 96 well, dark, flat clear bottom plate (Cellvis) at 25,000 cells/well. Cells were cultivated over night with 100 μl/well of RMPI-1640+10% FBS (Thermo). Cell media was removed, and cells were stained with 100 μl of 10 μg/ml Hoechst dye diluted in PBS×1 for 15 min at room temperature (RT) in the dark. Cells were then washed twice with PBS×1. […]
Internalization of pHrodo labeled antibodies into the late endosomes and lysosomes of cells was imaged by Cell-Discoverer7 (Zeiss) using fluorescence at excitation of 567 nm and emission detector of 592/25 nm. […]
Fluorescence of each well was recorded every 20 min for 20 h. Analysis of Sum Fluorescence Intensity per cell (SFI) was calculated by the Zen Software (ZEN3.1) and Excel analysis of linear regression.

[9] = tested on: CEACAM5 from Macaca fascicularis; details: background; cited from earlier work
Chain of CEACAM5 from Macaca fascicularis (as listed by the source): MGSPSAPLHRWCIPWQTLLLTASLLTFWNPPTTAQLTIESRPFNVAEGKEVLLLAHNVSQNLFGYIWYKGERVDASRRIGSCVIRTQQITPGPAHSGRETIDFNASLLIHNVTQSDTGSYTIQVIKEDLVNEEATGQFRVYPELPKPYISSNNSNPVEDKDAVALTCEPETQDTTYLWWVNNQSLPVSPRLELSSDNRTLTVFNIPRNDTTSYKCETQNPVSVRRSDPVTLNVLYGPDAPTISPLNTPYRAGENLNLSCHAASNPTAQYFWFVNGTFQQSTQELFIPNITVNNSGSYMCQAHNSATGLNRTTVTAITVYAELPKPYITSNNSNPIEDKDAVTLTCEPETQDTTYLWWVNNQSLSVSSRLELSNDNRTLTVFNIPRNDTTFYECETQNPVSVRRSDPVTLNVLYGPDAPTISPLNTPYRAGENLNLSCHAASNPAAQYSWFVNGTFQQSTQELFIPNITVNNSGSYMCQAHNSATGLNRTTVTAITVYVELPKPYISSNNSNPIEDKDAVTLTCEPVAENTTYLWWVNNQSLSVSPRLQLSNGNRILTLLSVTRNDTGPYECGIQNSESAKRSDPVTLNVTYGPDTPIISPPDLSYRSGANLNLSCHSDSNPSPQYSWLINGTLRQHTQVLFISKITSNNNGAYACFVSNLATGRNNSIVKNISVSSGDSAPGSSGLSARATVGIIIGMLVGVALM

Compound: CC[C@@]1(O)C(=O)OCc2c1cc1n(c2=O)Cc2c-1nc1cc(F)c(C)c3c1c2[C@@H](N)CC3 [PAYLOAD, (1S,9S)-1-Amino-9-ethyl-5-fluoro-1,2,3,9,12,15-hexahydro-9-hydroxy-4-methyl-10H,13H-benzo(de)pyrano(3′,4′:6,7)indolizino(1,2-b)quinoline-10,13-dione, reference compound]
- IC50 ([1]; MKN-45, 144 h, Table 2, six days, geometric mean, N ≥ 3, CEACAM5 Positive): 0.89 nM
- Emax ([1]; MKN-45, Table 2, at the highest tested compound concentration, read-out: MKN-45 maximal effect compared to untreated controls): -96%
- IC50 ([2]; Homo sapiens, SNU-16, 144 h, Table 2, six days, geometric mean, N ≥ 3, CEACAM5 Positive): 0.44 nM
- SNU-16 maximal effect compared to untreated controls ([2]; Table 3, at the highest tested compound concentration): (−99%)
- IC50 ([3]; SK-CO-1, 144 h, Table 2, six days, geometric mean, N ≥ 4, CEACAM5 Positive): 0.25 nM
- Emax ([3]; SK-CO-1, Table 2, at the highest tested compound concentration, read-out: SK-CO-1 maximal effect compared to untreated controls): -99%
- IC50 ([4]; 144 h, Table 2, six days, geometric mean, N ≥ 3, CEACAM5 Positive): 0.53 nM
- Emax ([4]; Table 2, at the highest tested compound concentration, read-out: LS174T maximal effect compared to untreated controls): -88%
- IC50 ([5]; MDA-MB-468, 144 h, six days, geometric mean, N ≥ 2, CEACAM5 Negative): 0.21 nM
- Emax ([5]; MDA-MB-468, at the highest tested compound concentration, read-out: MDA-MB-468 maximal effect compared to untreated controls): -99%
- IC50 [6]: 0.93 nM

Compound: Labetuzumab govitecan
- stability of the linker structure after parenteral application [7]: significant instability of the linker structure

Compound: hmn-14: known anti-CEACAM5 antibody as in labetuzumab govitecan; HC SEQ ID NO: 27, LC SEQ ID NO: 28 [reference compound]
- average binding rate ([8]; average of the three slopes of the linear part of the curve): 22268±3060
- Slope of Curve ([8]; linear part (700 to 1200 minutes) of fluorescence intensity per cell, 100 nM pHrodo labeled antibody, single wells): 23701 and 24350 and 18754
- cross-reactivity with CEACAM5 from Macaca fascicularis [9]: not cross-reacting with CEACAM5 from Macaca fascicularis

— patent US20250179210A1, “ANTI-CEACAM5 ANTIBODIES AND CONJUGATES AND USES THEREOF” (Merck Patent GmbH, priority 2022, published 2025)
